Assay results: patent US6169104A, “Di-aryl ethers and their derivatives as anti-cancer agents” (Large Scale Biology Corporation, priority 1998, dated 2001)

What was measured:
[1] = test system: met-1 mouse mammary tumors; assay: In vivo efficacy against met-1 mouse mammary tumors
Method: Mammary fat pads of Balb/c immunodeficient (nude) mice were implanted with 1 mm^3 of mammary tumor tissue. These mammary tumors originated from the met-1 mouse mammary tumor cell line and have been propagated by passaging in vivo. When palpable tumors appeared, animals were subdivided into various treatment groups and treated daily with intraperitoneal injections of control vehicle, BTO-967 (50 mg/kg), or BTO-964 (50 mg/kg). A group of untreated control animals was included in the study, because agents used in the vehicle for these test articles (DMSO/ethanol/CremophorEL/PEG 400, 1: 0.5 : 0.5: 6) were themselves found to have cytotoxic activity. Twice weekly, the volumes of the tumors in each animal in each group were measured to gather information on tumor growth (volume) as a function of type of treatment, dose, and time.

[2] = test system: Human leukemia (HL60) cells; assay: In vitro metabolism in human leukemia cells with and without rat liver S9; format: cell-based; conditions: for effect of metabolism by S9 on activity: 4 hr incubation with vs without rat liver S9, cells counted 3 days later (FIG. 2)
Method: FIG. 2 illustrates the in vitro metabolism of BTO-956, 964, 966, and 967 in human leukemia cells. In this experiments, human leukemia cells (HL60) were incubated for 4 hours in the presence of BTO-956, BTO-964, BTO-966 or BTO-967, with (closed symbols) and without (open symbols) rat liver microsome fraction S9. Following the 4 hr exposure to drug and S9, the cells were rinsed and replated at a density of 2×10^5 cells per ml, and counted 3 days later.
To test for either of these possibilities, the compounds, i.e., BTO-956, BTO-964, BTO-966 and BTO-967, were incubated with a microsomal enzyme fraction, referred to as S9.
Human leukemia (HL60) cells were used to evaluate drug metabolism. Exposure to the test article was performed in the presence and absence of S9, prepared from the liver of adult male rats given a single intraperitoneal injection of Arachlor 1254 (500 mg/kg). The S9 consisted of the 9000×G supernatant of liver homogenized in 0.25 M sucrose-100 mM phosphate buffer (pH 7.4) (Molecular Toxicology, Inc.). Cofactors were 1 mM NADP and 5 mM sodium isocitrate. On the day of exposure, cultures of cells, with or without the metabolism mixture, were incubated for 4 hours in RPMI containing 5% FBS and graded doses of BTO956, 964, 966, or 967. The test agents were prepared in serial dilutions from 10 mM stock solutions in DMSO yielding a dose range 100 μM, 50 μM, 25 μM, 10 μM and 5 μM concentrations and a final DMSO concentration of 1%. In each case, cells were maintained at 37° C. under 5 percent CO2 in air. The experiments were conducted in 6-well tissue culture plates (Falcon) with an initial seeding density of 2×10^6 cells per well in 2 ml aliquots. The test compounds were added immediately to the medium in duplicate cultures. Treatment solution was removed by a series of low-speed centrifugations to pellet the cells, followed by removal of the supernatant and resuspension of cells in fresh RPMI containing 10% FBS.

SMILES | response of Met-1 tumors to treatment ([1]; 50 mg/kg daily i.p.) | Tumor Volume (mm^3) ([1]; 50 mg/kg daily intraperitoneal, 4 weeks post initiation of treatment, mean ± SEM, vehicle 1238 ± 170, none 1570 ± 219) | toxicity to HL60 cells ([2]; 4 hr exposure (FIG. 2)) | effect of metabolism by S9 on activity [2]
COc1ccc(Oc2c(I)cc(C=O)cc2I)cc1 [BTO-964, 3,5-Diiodo-4-(4'-methoxyphenoxy)benzadehyde] | positive response | 876±126 | more toxic to HL60 cells than is BTO-956 | more resistant to metabolic degradation
COC(=S)c1cc(I)c(Oc2ccc(OC)cc2)c(I)c1 [BTO-967, methyl 3,5-diiodo-4-(4'-methoxyphenoxy)thiobenzoate] | – | – | – | activated to more cytotoxic products
